Results as given in patent US7026281B1, “Antagonistic analogs of GH-RH inhibiting IGF-I and -II” (The Administrators of the Tulane Educational Fund, priority 1998, dated 2006).
Marks after values point to notes of the source that are not given here. Square brackets hold non-standard residues; d marks the D form. Peptide text beside a SMILES is read from it. * marks the point of attachment. Phe(4-Cl) = N[C@@H](Cc1ccc(Cl)cc1)C(=O)O; Nle = CCCC[C@H](N)C(=O)O; Abu = CC[C@H](N)C(=O)O; PhAc = O=C(Cc1ccccc1)*

How the values were obtained:
[1] = tested on: HT-29 human colon cancers; test: HT-29 human colon cancer xenografts in nude mice; type: in vivo; details: 20 μg daily sc., 6 weeks
Procedure: HT-29 human colon cancers were transplanted sc. into male nude mice. 19 days after transplantation, the mice were divided into groups of 10 animals each, and the treatment was started. The mice received single daily injections of various GH-RH antagonists sc. at 20 μg dose per day for 6 weeks. Tumors were measured regularly, and tumor volume was calculated. The mice were sacrificed at the end of experiment and tumor weights were measured.

[2] = tested on: hGH-RH(1–29)NH2 induced GH release; test: Inhibition of GH release in superfused rat pituitary system; type: cell-based; details: antagonist 30 nM; for Inhibition of GH release (%) 30 min: 1 nM hGH-RH(1–29)NH2 30 min later; for Inhibition of GH release (%) 60 min: 1 nM hGH-RH(1–29)NH2 60 min later; for Inhibition of GH release (%) 90 min: 1 nM hGH-RH(1–29)NH2 90 min later; for Inhibition of GH release (%) 120 min: 1 nM hGH-RH(1–29)NH2 120 min later; for Inhibition of GH release (%) 0 min: 1 nM hGH-RH(1–29)NH2 at 0 min
In short: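 Superfused rat pituitary cells preincubated 9 min with peptide, then challenged for 3 min with 1 nM hGH-RH(1–29)NH2 at 0, 30, 60, 90 and 120 min. Rat GH measured by double-antibody RIA; net integral GH responses expressed as percent of the original 1 nM GH-RH-induced response.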

[3] = target: T1, rat pituitary GH-RH receptors (Rattus norvegicus, UniProt Q02644); test: GH-RH radioreceptor binding assay, rat anterior pituitary membrane homogenates; details: for Ki: competition with [His1,125I-Tyr10,Nle27]hGH-RH(1–32)NH2; for R.A. (relative affinity compared to Standard antagonist): ratio of Ki values
T1 construct: from tissue; host or cells: anterior pituitary of male Sprague-Dawley rats, crude membrane homogenates
T1 sequence (Q02644 23-464): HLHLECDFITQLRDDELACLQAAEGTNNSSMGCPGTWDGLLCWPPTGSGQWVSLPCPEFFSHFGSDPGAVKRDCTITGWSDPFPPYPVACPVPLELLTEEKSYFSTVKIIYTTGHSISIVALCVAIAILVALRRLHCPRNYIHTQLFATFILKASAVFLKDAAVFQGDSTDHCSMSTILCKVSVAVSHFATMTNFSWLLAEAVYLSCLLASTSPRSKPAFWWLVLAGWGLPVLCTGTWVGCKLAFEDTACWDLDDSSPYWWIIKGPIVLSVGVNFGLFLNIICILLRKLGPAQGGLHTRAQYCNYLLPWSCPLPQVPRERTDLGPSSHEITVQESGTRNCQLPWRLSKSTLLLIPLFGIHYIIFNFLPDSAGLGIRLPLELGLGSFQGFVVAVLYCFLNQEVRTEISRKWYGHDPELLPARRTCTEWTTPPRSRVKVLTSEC
Procedure: GH-RH Binding Assay. A sensitive radioreceptor binding assay was developed to determine the binding characteristics of the antagonists of GH-RH (G. Halmos, A. V. Schally et al., Receptor 3, 87–97, 1993), hereby incorporated by reference. The assay is based on binding of labelled [His^1,Nle^27]hGH-RH(1–32)NH2 to rat anterior pituitary membrane homogenates. Iodinated derivatives of [His^1,Nle^27]hGH-RH(1–32)NH2 are prepared by the chloramine-T method (F. C. Greenwood et al., Biochemistry 89:114–123, 1963), hereby incorporated by reference. Pituitaries from male Sprague-Dawley rats (250–300 g) are used to prepare crude membranes. For saturation binding analyses, membrane homogenates are incubated with at least 6 concentrations of [His^1,^125I-Tyr^10,Nle^27]hGH-RH(1–32) NH2, ranging from 0.005 to 0.35 nM in the presence or absence of excess unlabelled peptide (1 μM).
The pellet is counted for radioactivity in a γ-counter. The affinities of the antagonist peptides tested to rat pituitary GH-RH receptors are determined in competitive binding experiments. The final binding affinities are estimated by Ki (dissociation constant of the inhibitor-receptor complex) and are determined by the Ligand PC and McPherson computer programs of Munson and Rodbard (P. J. Munson and D. Rodbard, Anal. Biochem. 107. 220–239, 1980). Relative affinities compared to [Ac-Tyr^1,D-Arg^2]hGH-RH(1–29)NH2, the Standard antagonist, are calculated as the […].

[4] = tested on: GH release stimulated by hGH-RH(1–29)NH2; test: In vivo inhibition of serum GH response in rats; set-up: species or system rat; details: for Inhibition of the GH release stimulated by hGH-RH(1–29)NH2 (in words): 80 μg/kg i.v., rats
Procedure: GH-RH antagonistic effect of the analogs was tested on young male Sprague-Dawley rats (200–250 g). In each experiment, 5 groups of 7 animals each were used. The compounds (80 μg/kg) and GH-RH(1–29)NH2 (3 μg/kg) were dissolved in 5.5% mannitol and given intravenously to the jugular vein of the rats under Nembutal anesthesia. The time elapsed between the administrations of the antagonist and GH-RH varied between groups, according to the following schedule. The first group of animals received GH-RH injection 5 min after the administration of the antagonist; for the second, third and fourth group of animals, the time interval elapsed between the injection of the antagonist and that of GH-RH was 15, 30, and 60 min, respectively. The control group was first injected with the solvent alone instead of the antagonist, followed by a GH-RH injection 5 min later.
0.4 mL blood samples were taken for GH RIA before the administration of the antagonist (“blood0”), and 5 min after the injection of GH-RH (“blood1”). The GH response in each group was calculated as rGH=(GHblood1/GHblood0), mean±S.E.M. of the individual differences. Relative inhibition of GH response (%) in each group treated was calculated as […].

[5] = antagonist 80 μg/kg i.v. 5 min before GH-RH
[6] = antagonist 80 μg/kg i.v. 15 min before GH-RH
[7] = antagonist 80 μg/kg i.v. 15 min before GH-RH 3 μg/kg
[8] = antagonist 80 μg/kg i.v. 30 min before GH-RH
[9] = antagonist 80 μg/kg i.v. 30 min before GH-RH 3 μg/kg
[10] = antagonist 80 μg/kg i.v. 60 min before GH-RH
[11] = antagonist 80 μg/kg i.v. 60 min before GH-RH 3 μg/kg
[12] = rGH=GHblood1/GHblood0, antagonist 80 μg/kg i.v. 5 min before GH-RH 3 μg/kg

Row | SMILES | Inhibitory effect on HT-29 human colon cancers (in words) [1] | Final tumor volume (mm^3) ([1]; nude mice) | Tumor weight ([1]; nude mice) [mg] | Inhibition of GH release (%) 30 min [2] [%] | Inhibition of GH release (%) 60 min [2] [%] | Inhibition of GH release (%) 90 min [2] [%] | Inhibition of GH release (%) 120 min [2] [%] | Inhibition of GH release (%) 0 min [2] [%] | Ki [3] [nM] | R.A. (relative affinity compared to Standard antagonist) [3] | Inhibition of the GH release stimulated by hGH-RH(1–29)NH2 (in words) [4] | Relative inhibition % of GH response [4, 5] [%] | Relative inhibition % of GH response [4, 6] [%] | GH response mean ± S.E.M. [4, 7] | Relative inhibition % of GH response [4, 8] [%] | GH response mean ± S.E.M. [4, 9] | Relative inhibition % of GH response [4, 10] [%] | GH response mean ± S.E.M. [4, 11] | GH response mean ± S.E.M. [4, 12]
1 | CCCC[C@H](NC(=O)[C@@H](NC(=O)[C@H](CC(=O)O)NC(=O)[C@H](CCC(N)=O)NC(=O)[C@H](CC(C)C)NC(=O)[C@H](CC(C)C)NC(=O)[C@H](CCCCN)NC(=O)[C@H](CCCNC(=N)N)NC(=O)[C@H](C)NC(=O)[C@H](CO)NC(=O)[C@H](CC(C)C)NC(=O)[C@H](CCC(N)=O)NC(=O)[C@H](CC)NC(=O)[C@H](CC(C)C)NC(=O)[C@@H](NC(=O)[C@H](CCCCN)NC(=O)[C@H](CCCNC(=N)N)NC(=O)[C@H](Cc1ccc(O)cc1)NC(=O)[C@H](CCCNC(=N)N)NC(=O)[C@H](CC(N)=O)NC(=O)[C@@H](NC(=O)[C@H](Cc1ccc(Cl)cc1)NC(=O)[C@@H](NC(=O)[C@H](C)NC(=O)[C@H](CC(=O)O)NC(=O)[C@@H](CCCNC(=N)N)NC(=O)[C@H](Cc1ccc(O)cc1)NC(=O)Cc1ccccc1)[C@@H](C)CC)[C@@H](C)O)C(C)C)[C@@H](C)CC)C(=O)N[C@@H](CO)C(=O)N[C@H](CCCNC(=N)N)C(N)=O [Peptide 9, [PhAc^0, D-Arg^2, Phe(pCl)^6, Arg^9, Abu^15, Nle^27, D-Arg^29]hGH-RH(1–29)NH2] (PhAc-Y[dR]DAI[Phe(4-Cl)]TNRYRKVL[Abu]QLSARKLLQDI[Nle]S[dR]-NH2) | smaller but still significant inhibition | 1194 ± 506* mm^3 | 1383 ± 576 | 87 | 79 | 72 | 59 | 91 | 0.058 | 51 | strong and long-lasting inhibition | 75 | 59 | 3.85 ± 0.50 | 67 | 3.34 ± 0.30 | 10 | 7.32 ± 1.16 | 2.75 ± 0.75
2 | CCCC[C@H](NC(=O)[C@@H](NC(=O)[C@H](CC(=O)O)NC(=O)[C@H](CCC(N)=O)NC(=O)[C@H](CC(C)C)NC(=O)[C@H](CC(C)C)NC(=O)[C@H](CCCCN)NC(=O)[C@H](CCCNC(=N)N)NC(=O)[C@H](C)NC(=O)[C@H](CO)NC(=O)[C@H](CC(C)C)NC(=O)[C@H](CCC(N)=O)NC(=O)[C@H](CC)NC(=O)[C@H](CC(C)C)NC(=O)[C@@H](NC(=O)[C@H](CCCCN)NC(=O)[C@H](CCCNC(=N)N)NC(=O)[C@H](Cc1ccc(OC)cc1)NC(=O)[C@H](CO)NC(=O)[C@H](CC(N)=O)NC(=O)[C@@H](NC(=O)[C@H](Cc1ccc(Cl)cc1)NC(=O)[C@@H](NC(=O)[C@H](C)NC(=O)[C@H](CC(=O)O)NC(=O)[C@@H](CCCNC(=N)N)NC(=O)[C@H](Cc1ccc(O)cc1)NC(=O)Cc1ccccc1)[C@@H](C)CC)[C@@H](C)O)C(C)C)[C@@H](C)CC)C(=O)N[C@@H](CO)C(=O)N[C@H](CCCNC(=N)N)C(N)=O [Peptide 16, [PhAc^0, D-Arg^2, Phe(pCl)^6, Tyr(Me)^10, Abu^15, Nle^27, D-Arg^29]hGH-RH(1–29)NH2] (PhAc-Y[dR]DAI[Phe(4-Cl)]TNSY(Me)RKVL[Abu]QLSARKLLQDI[Nle]S[dR]-NH2) |  |  |  | 87 | 83 | 56 | 65 | 65 | 0.07 | 42 | strong and long-lasting inhibition | 77 | 70 | 3.44 ± 0.62 | 48 | 5.24 ± 1.36 | 0 | 9.19 ± 1.89 | 2.89 ± 0.65
